For assay [1], the target named is T1, MC4r (Homo sapiens, UniProt P32245). Put plainly: Binding of iodine-125 labeled NDP-α-MSH, human recombinant CHO cells, hMC4r. Also on record: expressed in transfected cells; host or cells: CHO. On the procedure: (§1) Melanocortin receptor binding and function of Compound 7.1 was tested. Ki binding values (nM) were calculated utilizing the percent inhibit of the binding of iodine-125 labeled NDP-α-MSH against B16-F1 cells for mMC1r, and human recombinant CHO cells for hMC3r, hMC4r and hMC5r, with the inhibition constant calculated using the Cheng Prusoff equation. Functional results (EC50 and efficacy) were calculated utilizing cAMP assays with NDP-α-MSH for mMC1r, hMC3r and hMC4r, ACTH for hMC2r, and α-MSH for hMC5r for agonist measures, with the same target cells for melanocortin receptors mMC1r, hMC3r, hMC4r and hMC5r, and human recombinant Cloudman M3 cells for hMC2r.
T1 sequence (P32245 whole entry): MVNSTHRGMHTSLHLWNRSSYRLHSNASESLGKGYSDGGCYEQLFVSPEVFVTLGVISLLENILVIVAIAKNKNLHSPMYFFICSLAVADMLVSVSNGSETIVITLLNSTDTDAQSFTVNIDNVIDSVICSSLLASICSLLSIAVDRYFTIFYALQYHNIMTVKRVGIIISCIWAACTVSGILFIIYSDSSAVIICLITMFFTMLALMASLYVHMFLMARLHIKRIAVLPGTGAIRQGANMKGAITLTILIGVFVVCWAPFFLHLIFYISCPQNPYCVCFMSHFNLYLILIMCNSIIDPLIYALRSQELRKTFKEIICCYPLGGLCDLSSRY

Assay [2] addresses T1, MC4r. In words: cAMP functional study in human MC4r expression system approximating maximal physiologic receptor densities. Type of assay: cell-based. Also on record: host or cells: TREx-293. The note with it: low receptor density human MC4r system. On the procedure: Assay for Agonist Activity. Accumulation of intracellular cAMP was examined as a measure of the ability of the peptides of the present invention to elicit a functional response in HEK-293 cells that express MC4-R. Confluent HEK-293 cells that express recombinant hMC4-R were detached from culture plates by incubation in enzyme-free cell dissociation buffer. Dispersed cells were suspended in Hanks' Balanced Salt Solution containing 10 mM HEPES (pH 7.5), 1 mM MgCl2, 1 mM glutamine, 0.5% albumin and 0.3 mM 3-isobutyl-1-methyl-xanthine (IBMX), a phosphodiesterase inhibitor. The cells were plated in 96-well plates at a density of 0.5×10^5 cells per well and pre-incubated for 10 minutes. Cells were exposed for 15 minutes at 37° C. to peptides of the present invention dissolved in DMSO (final DMSO concentration of 1%) at a concentration range of 0.05-5000 nM in a total assay volume of 200 μL. NDP-α-MSH was used as the reference agonist. cAMP levels were determined by an HTRF® cAMP cell-based assay system from Cisbio Bioassays utilizing cryptate-labeled anti-cAMP and d2-labeled cAMP, with plates read on a Perkin-Elmer Victor plate reader at […]. Data analysis was performed by nonlinear regression analysis with Graph-Pad Prism® software. The maximum efficacies of the test peptides of the present invention were compared to that achieved by the reference melanocortin agonist NDP-αMSH.
Low Receptor Density Systems. In functional studies preferably a human MC4r expression system approximating maximal human physiologic receptor densities is employed. In one aspect, a tetracycline-regulated mammalian expression system that uses regulatory elements from the E. coli Tn10-encoded tetracycline (Tet) resistance operon was employed (T-REx™ System, Invitrogen). By use of the T-REx™ System, expression of the gene of interest, the human MC4-R gene, was repressed in the absence of tetracycline or doxycycline and induced in the presence of tetracycline or doxycycline, with receptor density being dependent on the concentration of tetracycline or doxycycline. See generally Yao F. et al: Tetracycline repressor, tetR, rather than the tetR-mammalian cell transcription factor fusion derivatives, regulates inducible gene expression in mammalian cells. Hum. Gene Ther. 9:1939-1950 (1998), incorporated here by reference. Regulation was based on the binding of tetracycline or doxycycline, a derivative of tetracycline, to the Tet repressor and derepression of the promoter controlling expression of the human MC4-R gene. In general tetracycline or related regulators, such as tetracycline-derivatives, may be used to induce the gene expression. An inducible expression plasmid for expression of human MC4-R gene under the control of the strong human cytomegalovirus immediate-early (CMV) promoter and two tetracycline operator 2 (TetO2) sites was employed, together with a regulatory plasmid, pcDNA6/TR, which encodes the Tet repressor (TetR) under the control of the human SV40 promoter. Thus, expression of the human MC4-R gene from the inducible expression vector was controlled by the strong CMV promoter into which 2 copies of the tet operator 2 (TetO2) sequence had been inserted in tandem. The TetO2 sequences consisted of 2 copies of 19-nucleotide sequence separated by a 2 base pair spacer. Each 19 nucleotide TetO2 sequence served as the binding site for 2 molecules of the Tet repressor. The expression vector pcDNA4/TO/MC4R was introduced into TREx-293 (Invitrogen, R710-07), a cell line stably expressing the tetracycline repressor pcDNA6/TR using lipofectamin 2000 reagent (Invitrogen, 11668-019). Alternatively, both the expression vector and repressor are introduced into host cells by standard transformation or transfection methods.

The target in assay [3] is T2, mMC1r (Mus musculus, UniProt Q01727).
T2 construct: endogenous in cells; host or cells: B16-F1
T2 sequence (Q01727 whole entry): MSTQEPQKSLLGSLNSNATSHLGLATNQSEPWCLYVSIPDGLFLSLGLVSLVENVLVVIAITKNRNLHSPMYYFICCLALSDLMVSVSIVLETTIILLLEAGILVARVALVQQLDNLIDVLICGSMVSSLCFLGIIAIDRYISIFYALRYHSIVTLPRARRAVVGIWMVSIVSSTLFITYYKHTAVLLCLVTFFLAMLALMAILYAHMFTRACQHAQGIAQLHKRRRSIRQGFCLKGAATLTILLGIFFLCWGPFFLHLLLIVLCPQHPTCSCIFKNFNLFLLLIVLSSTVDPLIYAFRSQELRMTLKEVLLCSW
In words: cAMP assay mMC1r (B16-F1 cells, NDP-α-MSH reference). Type of assay: cell-based. As to the method: as §1

In the next assay the target is T3, hMC5r (Homo sapiens, UniProt P33032).
T3 construct: expressed in transfected cells; host or cells: CHO
T3 sequence (P33032 whole entry): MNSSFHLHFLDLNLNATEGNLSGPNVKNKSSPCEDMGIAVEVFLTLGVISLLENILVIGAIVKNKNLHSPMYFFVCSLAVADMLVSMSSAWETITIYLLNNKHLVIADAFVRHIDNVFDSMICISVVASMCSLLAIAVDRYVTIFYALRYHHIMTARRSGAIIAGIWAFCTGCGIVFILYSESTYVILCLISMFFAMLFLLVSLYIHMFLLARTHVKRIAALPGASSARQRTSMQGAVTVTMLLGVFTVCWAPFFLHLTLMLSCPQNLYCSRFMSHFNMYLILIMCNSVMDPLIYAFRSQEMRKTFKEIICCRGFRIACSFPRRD
In words: Binding of iodine-125 labeled NDP-α-MSH, human recombinant CHO cells, hMC5r. As to the method: as §1

A further assay addresses T4, MC1r (Homo sapiens, UniProt Q01726).
T4 construct: expressed in transfected cells; host or cells: HEK-293 (membrane homogenates)
In words: Competitive inhibition binding assay, MC1r. The note with it: binding studies. On the procedure:
A competitive inhibition binding assay is performed using membrane homogenates prepared from HEK-293 cells that express recombinant hMC1ra, hMC4r, hMC3r, or hMC5r, and from B16-F10 mouse melanoma cells (containing endogenous MC1r). In the examples that follow, all values are for human recombinant receptors unless otherwise noted. Assays are performed in 96 well GF/B Millipore multiscreen filtration plates (MAFB NOB10) pre-coated with 0.5% bovine serum albumin (Fraction V). […] After incubation for 60 to 90 minutes at 37° C., the assay mixture is filtered and the membranes washed three times with ice-cold buffer. Filters are dried and counted in a gamma counter for bound radioactivity.
Maximal specific binding (100%) is defined as the difference in radioactivity (cpm) bound to cell membranes in the absence and presence of 1 μM NDP-α-MSH. […] Each assay is conducted in duplicate or triplicate and the actual mean values are described, with results less than 0% reported as 0%. Ki values for test compounds are determined using Graph-Pad Prism® curve-fitting software.

The target of assay [4] is T2, mMC1r. In words: Binding of iodine-125 labeled NDP-α-MSH, B16-F1 cells, mMC1r. On the procedure:
as §1

A further assay relates to C57Bl/6 DIO mice. In words: Oral administration, feed intake and body weight in C57Bl/6 DIO mice (comparison with MC4r knockout). Type of assay: in vivo, mouse. As to the method:
Feed intake and body weight was evaluated in MCr4 knockout (MC4r−/−) mice (Jackson Laboratories) compared to C57Bl/6 DIO mice. […] Feed weights were taken at time 0, 2, 6 and 24 hours post lights out. […] The change in body weight is shown in FIG. 4 starting on study day 5, the first day of administration of compound 7.1. […] Additionally, there was a statistically significant mean difference, 2.8%, 95% Cl (1.281, 4.253), and p value <0.0001 between DIO mice receiving compound 7.1 and MC4r (−/−) receiving compound 7.1.

The values that follow come from patent US20210198201A1, “Orally Active Melanocortin Receptor-4 Compounds” (Palatin Technologies, Inc., priority 2018, published 2021).

As usually defined, the Ki is the dissociation constant of the complex between target and ligand, obtained from inhibition or displacement. As usually defined, the EC50 is the concentration giving half of the maximal effect. A lower EC50 goes with higher potency in that assay.

T4 sequence (Q01726 whole entry): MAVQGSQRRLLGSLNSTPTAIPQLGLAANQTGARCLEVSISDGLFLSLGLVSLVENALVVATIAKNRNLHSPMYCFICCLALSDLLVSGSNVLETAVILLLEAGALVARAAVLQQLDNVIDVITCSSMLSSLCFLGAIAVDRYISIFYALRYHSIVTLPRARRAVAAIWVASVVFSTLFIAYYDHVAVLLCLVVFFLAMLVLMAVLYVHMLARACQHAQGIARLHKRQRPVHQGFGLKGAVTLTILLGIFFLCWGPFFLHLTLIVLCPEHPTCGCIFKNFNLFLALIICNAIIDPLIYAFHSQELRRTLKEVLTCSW

As to `CC(=O)N1CCC(N(CC(C)C)N2CCN(C(=O)[C@@H](Cc3ccc(Cl)cc3)NC(=O)C(C)(C)N)CC2)CC1` [Compound 7.1, N-[(1R)-2-[4-[(1-acetyl-4-piperidyl)-isobutyl-amino]piperazin-1-yl]-1-[(4-chlorophenyl)methyl]-2-oxo-ethyl]-2-amino-2-methyl-propanamide], the Ki at MC4r [1] came out at 14 nM; at hMC5r, 1200 nM; at MC1r, 200 nM; at mMC1r [4], 93 nM. The EC50 on MC4r [2] came out at 23 nM; on mMC1r [3] it was 460 nM. Further, the Emax on MC4r [2] (read-out: relative efficacy, compared to NDP-α-MSH) was 33%. The “effect on body weight vs own vehicle group (in words)” value in the assay on C57Bl/6 DIO mice (30 mg/kg two daily administrations via oral gavage) was “significant body weight loss”. The “food consumption vs vehicle only (in words)” value in the assay with C57Bl/6 DIO mice (6 and 24 hour timepoints, 30 mg/kg twice daily oral gavage) was “significantly decreased”.
